No end group written: not given here.
Tested on: MDCK (Madin-Darby Canine Kidney) cells
Test: Passage across an epithelium with tight junctions (TRANSWELL system)
Type: in vitro ADME
Details: for passage into the apical compartment: Example 4: basolateral compartment, 10 μM, 30 minutes at 370° C.
Method: The passage of the Penet and NES-Penet peptides across an epithelium with tight junctions was evaluated using the device (TRANSWELL system, CORNING-COSTAR) represented in FIG. 3.
This device comprises two compartments (1, 2) separated by a microporous polyester membrane (3) on which an epithelium (4) consisting of MDCK (Madin-Darby Canine Kidney) cells has been established. The cells are seeded and grow to confluence.
The compartment (1) in contact with the microporous membrane and the basolateral pole of the cells is referred to as the basolateral compartment. The compartment (2), in contact with the apical pole of the cells, is referred to as the apical compartment.
Each of the compartments is filled with medium consisting of the following: Minimum Essential Medium with Earle Salt (MEM), 2 mM glutamine, 2 mM Hepes, pH 7, 5 U/ml penicillin, 5 μg/ml streptomycin, supplemented with a mixture of protease inhibitors.
For each experiment, the integrity of the tight junctions is controlled by measuring the resistance between the two compartments (R>2000Ω/cm^2).
Moreover, the tightness of the epithelium was also verified by adding […] inulin (6.5×10^5 cpm/compartment), either to the apical compartment or to the basolateral compartment, and measuring the radioactivity in the other compartment 180 minutes later. […]
The peptides are precipitated by adding 10% trichloro-acetic acid (TCA), and taken up in boiling Laemmli medium. […] The presence of the Penet-1 or NES-Penet peptides in the starting compartment, in the end compartment, or inside the cells, is detected by revelation with streptavidin-peroxidase as indicated in Example 1 above. […]
At the end of the incubation, the contents of the basolateral compartment and of the apical compartment, and that of the cells, were analyzed as described above in order to detect the presence of the NES-Penet peptide.
Furthermore, the passage of the peptides across an epithelium with tight junctions was evaluated using the device described in Example 2 above. […]

| passage into the apical compartment | degradation of the peptide during passage | Molecule |
| --- | --- | --- |
| much greater | – | CC[C@H](C)[C@H](NC(=O)[C@H](CCCCN)NC(=O)[C@@H]1CCCN1C(=O)[C@H](CCC(N)=O)NC(=O)[C@H](CCCNC(=N)N)NC(=O)[C@H](CCC(=O)O)NC(=O)[C@H](CC(N)=O)NC(=O)[C@H](CC(C)C)NC(=O)CNC(=O)[C@H](CC(C)C)NC(=O)[C@H](CCC(=O)O)NC(=O)[C@H](CCC(N)=O)NC(=O)[C@H](C)NC(=O)[C@H](CC(C)C)NC(=O)[C@H](CO)NC(=O)[C@H](CCC(N)=O)NC(=O)CCCCNC(=O)CCCC[C@@H]1SC[C@@H]2NC(=O)N[C@@H]21)C(=O)N[C@@H](Cc1c[nH]c2ccccc12)C(=O)N[C@@H](Cc1ccccc1)C(=O)N1CCC[C@H]1C(=O)N[C@@H](CC(N)=O)C(=O)N[C@@H](CCCNC(=N)N)C(=O)N[C@@H](CCCNC(=N)N)C(=O)N[C@@H](CCCCN)C(=O)N1CCC[C@H]1C(=O)N[C@@H](Cc1c[nH]c2ccccc12)C(=O)N[C@@H](CCCCN)C(=O)N[C@@H](CCCCN)C(=O)O [NES-Pen3P] |
| – | not accompanied by any degradation | CC[C@H](C)[C@H](NC(=O)[C@H](CCCCN)NC(=O)[C@@H](NC(=O)[C@H](CCC(N)=O)NC(=O)[C@H](CCCNC(=N)N)NC(=O)[C@H](CCC(=O)O)NC(=O)[C@H](CC(N)=O)NC(=O)[C@H](CC(C)C)NC(=O)CNC(=O)[C@H](CC(C)C)NC(=O)[C@H](CCC(=O)O)NC(=O)[C@H](CCC(N)=O)NC(=O)[C@H](C)NC(=O)[C@H](CC(C)C)NC(=O)[C@H](CO)NC(=O)[C@H](CCC(N)=O)NC(=O)CCCCNC(=O)CCCC[C@@H]1SC[C@@H]2NC(=O)N[C@@H]21)[C@@H](C)CC)C(=O)N[C@@H](Cc1c[nH]c2ccccc12)C(=O)N[C@@H](Cc1ccccc1)C(=O)N[C@@H](CCC(N)=O)C(=O)N[C@@H](CC(N)=O)C(=O)N[C@@H](CCCNC(=N)N)C(=O)N[C@@H](CCCNC(=N)N)C(=O)N[C@@H](CCSC)C(=O)N[C@@H](CCCCN)C(=O)N[C@@H](Cc1c[nH]c2ccccc12)C(=O)N[C@@H](CCCCN)C(=O)N[C@@H](CCCCN)C(=O)O [NES-Penet] |
| very slight passage | – | RQPKIWFPNRRKPWKK [Pen3P, RQPKIWFPNRRKPWKK, reference compound] |

— US8242088B2, “Carrier vectors through an epithelium with tight junctions” (Centre National de la Recherche Scientifique, priority 2000, dated 2012)
